pKd: −log10 of the molar value.
biological target: Glutamate NMDA receptor; assay: Compound was tested for agonistic activity at the N-methyl-D-aspartate glutamate receptor obtained from the rat cortical wedge preparation; assay type: functional; settings: read-out: KD app

Row | Compound | pKd
1 | O=C(O)CC1=C(c2ccccc2)CN[C@@H]1C(=O)O | 3.25
2 | O=C(O)CC1=C(c2ccoc2)CN[C@@H]1C(=O)O | 4.07
3 | O=C(O)CC1=C(c2cccs2)CN[C@@H]1C(=O)O | 4.70
4 | COc1ccccc1C1=C(CC(=O)O)[C@@H](C(=O)O)NC1 | 3.42
5 | O=C(O)CC1=C(c2ccsc2)CN[C@@H]1C(=O)O | 4.35
6 | O=C(O)CC1=C(c2ccc3ccccc3c2)CN[C@@H]1C(=O)O | 3.60
7 | O=C(O)CC1=C(c2ccco2)CN[C@@H]1C(=O)O | 4.15
